This note sets out measurements from patent US10363314B2, “Sprayable topical carrier and composition comprising phosphatidylcholine” (LIPIDOR AB, priority 2013, dated 2019).

This data set relates to human skin. Nature of the data set: Erythema occurrence upon treating skin with carriers under occlusion for 12 days, first study. In kind it is in vivo. To be noted: 33 healthy volunteers, occlusive conditions, applied 5 days per week, scored after 12 days, index 0-4. The method, then: The effect of prior art pharmaceutical compositions and of carriers and compositions of the invention on human skin was observed by visual inspection or by determining erythema index by using DermaLab Combo and DSM II Colormeter (Cortex Technology, Denmark).
Erythema occurrence was assessed in two human studies. In the first study the skin irritation potential of different lipid carriers was evaluated. Thirty-three healthy volunteers received the test formulations and a positive and negative control under occlusive conditions. The test articles were applied 5 days per week and the irritation grade was scored after 12 days according to a four-level assessment index (0=No reaction; 1=Slight diffuse, partial erythema; 2=Clear, sharply demarcated erythema; 3=Severe erythema with induration; 4=Severe erythema with induration and/or epidermal defect).

Turning to `CCCCCCCCCCCCOS(=O)(=O)[O-].[Na+]` [Pos. control, Sodium dodecylsulfate], the “Mean erythema assessment index” value was found to be 3.0.
